# Results from ChEMBL document CHEMBL4613209, “Quinolone hybrids and their anti-cancer activities: An overview” (Eur J Med Chem, 2019).
# Tested on: EJ
# Assay: Cytotoxicity against human EJ cells assessed as reduction in cell viability by MTT assay
# Assay type: functional, cell-based
row,Compound,IC50 [µM]
1,CCn1cc(C(=O)O)c(=O)c2cc(F)c(N3CCN(C/C(=N/OC)c4cccs4)CC3)nc21,2 to 131
2,CCn1cc(C(=O)O)c(=O)c2cc(F)c(N3CCN(C/C(=N/O)c4cccs4)CC3)nc21,2 to 131
3,CCn1cc(C(=O)O)c(=O)c2cc(F)c(N3CCN(C/C(=N/O)c4ccc(Cl)s4)CC3)cc21,≤ 20
4,O=C(O)c1cn(C2CC2)c2cc(N3CCN(C/C(=N/OCc4ccccc4)c4ccc(Cl)s4)CC3)c(F)cc2c1=O,≤ 20
5,CCn1cc(C(=O)O)c(=O)c2cc(F)c(N3CCN(C/C(=N/OC)c4cccs4)CC3)cc21,2 to 131
6,CCn1cc(C(=O)O)c(=O)c2cc(F)c(N3CCN(CC(=O)c4cccs4)CC3)nc21,2 to 131
7,CCn1cc(C(=O)O)c(=O)c2cc(F)c(N3CCN(CC(=O)c4cccs4)CC3)cc21,2 to 131
8,CCn1cc(C(=O)O)c(=O)c2cc(F)c(N3CCN(C/C(=N/OCc4ccccc4)c4cccs4)CC3)cc21,2 to 131
9,O=C(O)c1cn(C2CC2)c2cc(N3CCN(C/C(=N/OCc4ccccc4)c4cccs4)CC3)c(F)cc2c1=O,2 to 131
10,CCn1cc(C(=O)O)c(=O)c2cc(F)c(N3CCN(C/C(=N/OCc4ccccc4)c4cccs4)CC3)nc21,2 to 131

# Tested on: A-431
# Assay: Cytotoxicity against human A431 cells assessed as reduction in cell viability by MTT assay
# Assay type: functional, cell-based
row,Compound,IC50 [µM]
1,CCn1cc(C(=O)O)c(=O)c2cc(F)c(N3CCN(C/C(=N/OC)c4cccs4)CC3)nc21,2 to 131
2,CCn1cc(C(=O)O)c(=O)c2cc(F)c(N3CCN(C/C(=N/O)c4cccs4)CC3)nc21,2 to 131
3,CCn1cc(C(=O)O)c(=O)c2cc(F)c(N3CCN(C/C(=N/O)c4ccc(Cl)s4)CC3)cc21,≤ 20
4,O=C(O)c1cn(C2CC2)c2cc(N3CCN(C/C(=N/OCc4ccccc4)c4ccc(Cl)s4)CC3)c(F)cc2c1=O,≤ 20
5,CCn1cc(C(=O)O)c(=O)c2cc(F)c(N3CCN(C/C(=N/OC)c4cccs4)CC3)cc21,2 to 131
6,CCn1cc(C(=O)O)c(=O)c2cc(F)c(N3CCN(CC(=O)c4cccs4)CC3)nc21,2 to 131
7,CCn1cc(C(=O)O)c(=O)c2cc(F)c(N3CCN(CC(=O)c4cccs4)CC3)cc21,2 to 131
8,CCn1cc(C(=O)O)c(=O)c2cc(F)c(N3CCN(C/C(=N/OCc4ccccc4)c4cccs4)CC3)cc21,2 to 131
9,O=C(O)c1cn(C2CC2)c2cc(N3CCN(C/C(=N/OCc4ccccc4)c4cccs4)CC3)c(F)cc2c1=O,2 to 131
10,CCn1cc(C(=O)O)c(=O)c2cc(F)c(N3CCN(C/C(=N/OCc4ccccc4)c4cccs4)CC3)nc21,2 to 131

# Tested on: SK-MEL3
# Assay: Cytotoxicity against human SK-MEL-3 cells assessed as reduction in cell viability by MTT assay
# Assay type: functional, cell-based
row,Compound,IC50 [µM]
1,CCn1cc(C(=O)O)c(=O)c2cc(F)c(N3CCN(C/C(=N/OC)c4cccs4)CC3)nc21,2 to 131
2,CCn1cc(C(=O)O)c(=O)c2cc(F)c(N3CCN(C/C(=N/O)c4cccs4)CC3)nc21,2 to 131
3,CCn1cc(C(=O)O)c(=O)c2cc(F)c(N3CCN(C/C(=N/O)c4ccc(Cl)s4)CC3)cc21,≤ 20
4,O=C(O)c1cn(C2CC2)c2cc(N3CCN(C/C(=N/OCc4ccccc4)c4ccc(Cl)s4)CC3)c(F)cc2c1=O,≤ 20
5,CCn1cc(C(=O)O)c(=O)c2cc(F)c(N3CCN(C/C(=N/OC)c4cccs4)CC3)cc21,2 to 131
6,CCn1cc(C(=O)O)c(=O)c2cc(F)c(N3CCN(CC(=O)c4cccs4)CC3)nc21,2 to 131
7,CCn1cc(C(=O)O)c(=O)c2cc(F)c(N3CCN(CC(=O)c4cccs4)CC3)cc21,2 to 131
8,CCn1cc(C(=O)O)c(=O)c2cc(F)c(N3CCN(C/C(=N/OCc4ccccc4)c4cccs4)CC3)cc21,2 to 131
9,O=C(O)c1cn(C2CC2)c2cc(N3CCN(C/C(=N/OCc4ccccc4)c4cccs4)CC3)c(F)cc2c1=O,2 to 131
10,CCn1cc(C(=O)O)c(=O)c2cc(F)c(N3CCN(C/C(=N/OCc4ccccc4)c4cccs4)CC3)nc21,2 to 131

# Tested on: SW480
# Assay: Cytotoxicity against human SW480 cells assessed as reduction in cell viability by MTT assay
# Assay type: functional, cell-based
row,Compound,IC50 [µM]
1,CCn1cc(C(=O)O)c(=O)c2cc(F)c(N3CCN(C/C(=N/OC)c4cccs4)CC3)nc21,2 to 131
2,CCn1cc(C(=O)O)c(=O)c2cc(F)c(N3CCN(C/C(=N/O)c4cccs4)CC3)nc21,2 to 131
3,CCn1cc(C(=O)O)c(=O)c2cc(F)c(N3CCN(C/C(=N/O)c4ccc(Cl)s4)CC3)cc21,≤ 20
4,O=C(O)c1cn(C2CC2)c2cc(N3CCN(C/C(=N/OCc4ccccc4)c4ccc(Cl)s4)CC3)c(F)cc2c1=O,≤ 20
5,CCn1cc(C(=O)O)c(=O)c2cc(F)c(N3CCN(C/C(=N/OC)c4cccs4)CC3)cc21,2 to 131
6,CCn1cc(C(=O)O)c(=O)c2cc(F)c(N3CCN(CC(=O)c4cccs4)CC3)nc21,2 to 131
7,CCn1cc(C(=O)O)c(=O)c2cc(F)c(N3CCN(CC(=O)c4cccs4)CC3)cc21,2 to 131
8,CCn1cc(C(=O)O)c(=O)c2cc(F)c(N3CCN(C/C(=N/OCc4ccccc4)c4cccs4)CC3)cc21,2 to 131
9,O=C(O)c1cn(C2CC2)c2cc(N3CCN(C/C(=N/OCc4ccccc4)c4cccs4)CC3)c(F)cc2c1=O,2 to 131
10,CCn1cc(C(=O)O)c(=O)c2cc(F)c(N3CCN(C/C(=N/OCc4ccccc4)c4cccs4)CC3)nc21,2 to 131

# Tested on: MCF7
# Assay: Cytotoxicity against human MCF7 cells assessed as reduction in cell viability by MTT assay
# Assay type: functional, cell-based
row,Compound,IC50 [µM]
1,CCn1cc(C(=O)O)c(=O)c2cc(F)c(N3CCN(C/C(=N/OC)c4cccs4)CC3)nc21,2 to 131
2,CCn1cc(C(=O)O)c(=O)c2cc(F)c(N3CCN(C/C(=N/O)c4cccs4)CC3)nc21,2 to 131
3,CCn1cc(C(=O)O)c(=O)c2cc(F)c(N3CCN(C/C(=N/O)c4ccc(Cl)s4)CC3)cc21,≤ 20
4,O=C(O)c1cn(C2CC2)c2cc(N3CCN(C/C(=N/OCc4ccccc4)c4ccc(Cl)s4)CC3)c(F)cc2c1=O,≤ 20
5,CCn1cc(C(=O)O)c(=O)c2cc(F)c(N3CCN(C/C(=N/OC)c4cccs4)CC3)cc21,2 to 131
6,CCn1cc(C(=O)O)c(=O)c2cc(F)c(N3CCN(CC(=O)c4cccs4)CC3)nc21,2 to 131
7,CCn1cc(C(=O)O)c(=O)c2cc(F)c(N3CCN(CC(=O)c4cccs4)CC3)cc21,2 to 131
8,CCn1cc(C(=O)O)c(=O)c2cc(F)c(N3CCN(C/C(=N/OCc4ccccc4)c4cccs4)CC3)cc21,2 to 131
9,O=C(O)c1cn(C2CC2)c2cc(N3CCN(C/C(=N/OCc4ccccc4)c4cccs4)CC3)c(F)cc2c1=O,2 to 131
10,CCn1cc(C(=O)O)c(=O)c2cc(F)c(N3CCN(C/C(=N/OCc4ccccc4)c4cccs4)CC3)nc21,2 to 131
